Experimental data reported in patent US12642766B2, “EDB-FN as biomarker of cancer and/or brain disease and nanodrug delivery system targeting same” (KOREA UNIVERSITY RESEARCH AND BUSINESS FOUNDATION, priority 2020, dated 2026).
Ends that are not written are not given here.

How the values were obtained:
[1] = system: EDB-FN; assay: siRNA-mediated EDB-FN knockdown confirmed by qRT-PCR; format: cell-based, human; conditions: U87MG cells; GAPDH internal control; control siRNA 1.00±0.08
Procedure: Cells were collected, and ribonucleic acid (RNA) was extracted with RiboEx using an RNA isolation kit (GeneAll, Seoul, Republic of Korea). Complementary DNA (cDNA) was synthesized by reverse transcription using a total of 1 μg of RNA from each sample. As a result, the following genes were estimated: EDB-FN gene (forward primer: 5′-[…]-3′; reverse primer: 5′-[…]-3′); glyceraldehyde 3-phosphate dehydrogenase) gene (forward primer: 5′-[…]-3′; reverse primer: 5′-[…]-3′. The polymerase chain reaction protocol was as follows: initial denaturation at 94° C. for 5 min; 30 repetitions of denaturation at 94° C. for 1 min, primer annealing at 55° C. for 1 min, and extension at 72° C. for 2 min; and final extension at 72° C. for 7 min 1 μg of cDNA was added to 4 μL of ultrapure water, 5 μL of SYBR Green real-time mixture (Takara, Tokyo, Japan) was added before performing a real-time polymerase chain reaction (Qiagen, Tokyo, Japan). The messenger RNA (mRNA) level of each gene was quantified using the 2^−ΔΔ^Ct method and normalized with the messenger RNA of glyceraldehyde 3-phosphate dehydrogenase.
EDB-FN-specific siRNA and scrambled control siRNA were purchased from Bioneer (Daejeon, Republic of Korea). The target sequence of EDB-FN siRNA used for RNA interference is as follows: sense; […], antisense; […]. […] Transfection efficacy was analyzed after 48 hours.

[2] = target: EDB-FN (Homo sapiens, UniProt P02751); conditions: read-out: affinity of binding to EDB-FN; cited from earlier work
Chain of EDB-FN (Homo sapiens, UniProt P02751) (P02751 32-2477): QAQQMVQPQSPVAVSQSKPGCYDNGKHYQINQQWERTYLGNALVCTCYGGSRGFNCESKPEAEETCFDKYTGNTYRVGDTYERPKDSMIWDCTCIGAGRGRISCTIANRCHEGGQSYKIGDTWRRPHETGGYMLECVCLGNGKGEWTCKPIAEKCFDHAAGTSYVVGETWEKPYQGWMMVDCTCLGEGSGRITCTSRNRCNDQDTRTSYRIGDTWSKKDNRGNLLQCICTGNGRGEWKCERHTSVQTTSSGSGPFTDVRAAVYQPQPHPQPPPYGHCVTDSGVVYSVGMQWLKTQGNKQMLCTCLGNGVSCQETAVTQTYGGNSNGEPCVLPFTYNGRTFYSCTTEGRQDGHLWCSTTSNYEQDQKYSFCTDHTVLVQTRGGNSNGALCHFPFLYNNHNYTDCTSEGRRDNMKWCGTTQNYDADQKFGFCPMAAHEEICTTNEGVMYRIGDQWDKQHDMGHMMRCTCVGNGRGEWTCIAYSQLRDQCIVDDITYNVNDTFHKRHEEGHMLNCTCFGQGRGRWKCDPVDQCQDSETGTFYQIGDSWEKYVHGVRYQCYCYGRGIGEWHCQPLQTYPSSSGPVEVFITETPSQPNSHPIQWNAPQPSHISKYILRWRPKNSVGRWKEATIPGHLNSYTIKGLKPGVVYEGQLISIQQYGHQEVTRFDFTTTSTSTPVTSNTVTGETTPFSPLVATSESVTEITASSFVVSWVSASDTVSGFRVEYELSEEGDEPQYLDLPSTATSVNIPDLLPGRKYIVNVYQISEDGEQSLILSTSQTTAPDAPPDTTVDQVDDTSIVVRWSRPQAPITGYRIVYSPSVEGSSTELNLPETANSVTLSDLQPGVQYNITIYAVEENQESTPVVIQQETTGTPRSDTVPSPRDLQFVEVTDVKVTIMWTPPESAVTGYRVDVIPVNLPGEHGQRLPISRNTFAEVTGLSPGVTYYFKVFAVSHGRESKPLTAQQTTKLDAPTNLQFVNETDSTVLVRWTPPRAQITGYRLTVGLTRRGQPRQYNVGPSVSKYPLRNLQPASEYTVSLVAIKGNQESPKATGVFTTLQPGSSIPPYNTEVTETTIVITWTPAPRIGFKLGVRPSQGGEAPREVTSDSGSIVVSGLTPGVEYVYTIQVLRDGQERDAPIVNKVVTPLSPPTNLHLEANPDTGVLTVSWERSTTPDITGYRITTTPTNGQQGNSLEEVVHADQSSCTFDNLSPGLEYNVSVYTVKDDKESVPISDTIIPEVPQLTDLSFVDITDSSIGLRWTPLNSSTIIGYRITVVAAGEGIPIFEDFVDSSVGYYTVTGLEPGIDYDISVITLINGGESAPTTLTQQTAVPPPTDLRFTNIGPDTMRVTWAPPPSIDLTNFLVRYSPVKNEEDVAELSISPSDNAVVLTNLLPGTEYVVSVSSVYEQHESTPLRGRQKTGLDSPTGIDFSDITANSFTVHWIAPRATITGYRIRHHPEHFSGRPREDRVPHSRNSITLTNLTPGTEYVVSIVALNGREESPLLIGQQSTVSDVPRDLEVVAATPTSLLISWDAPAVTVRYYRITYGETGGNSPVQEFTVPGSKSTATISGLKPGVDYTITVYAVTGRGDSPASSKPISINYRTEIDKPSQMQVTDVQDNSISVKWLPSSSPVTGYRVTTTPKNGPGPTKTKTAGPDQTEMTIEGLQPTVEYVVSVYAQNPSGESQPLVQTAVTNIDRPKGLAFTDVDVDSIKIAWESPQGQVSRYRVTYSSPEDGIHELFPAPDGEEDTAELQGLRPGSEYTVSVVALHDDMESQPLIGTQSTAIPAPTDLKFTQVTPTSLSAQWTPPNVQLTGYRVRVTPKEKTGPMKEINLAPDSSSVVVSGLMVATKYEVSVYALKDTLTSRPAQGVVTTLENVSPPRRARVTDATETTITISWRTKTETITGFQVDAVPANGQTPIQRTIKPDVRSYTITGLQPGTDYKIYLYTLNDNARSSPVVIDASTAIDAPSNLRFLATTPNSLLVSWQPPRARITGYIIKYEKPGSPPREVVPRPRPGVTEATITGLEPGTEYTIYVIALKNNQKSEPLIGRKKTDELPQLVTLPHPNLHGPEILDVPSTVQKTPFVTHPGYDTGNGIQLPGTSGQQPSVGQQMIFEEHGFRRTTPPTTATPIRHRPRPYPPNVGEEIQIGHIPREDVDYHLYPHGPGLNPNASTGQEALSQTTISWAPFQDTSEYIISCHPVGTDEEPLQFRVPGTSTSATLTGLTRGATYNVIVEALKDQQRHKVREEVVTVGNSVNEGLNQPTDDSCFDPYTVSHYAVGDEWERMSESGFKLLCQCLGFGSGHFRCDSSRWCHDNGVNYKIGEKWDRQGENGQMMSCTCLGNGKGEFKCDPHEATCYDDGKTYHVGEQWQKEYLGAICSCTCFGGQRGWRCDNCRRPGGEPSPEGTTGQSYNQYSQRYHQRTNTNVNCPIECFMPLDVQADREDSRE

Row | Substance | EDB-FN expression (qRT-PCR) [1] | Kd [2] [nM]
1 | EDB-FN siRNA: EDB-FN-specific siRNA; sense ACAGUCCCAGAUCAUGGAG, antisense CUCCAUGAUCUGGGACUGU (chemistry not given here) | 0.45±0.01 | 
2 | N′-CSSPIQGSWTWENGK(C)WTWGIIRLEQ-C′ (CSSPIQGSWTWENGK(Cys)WTWGIIRLEQ; listed as Homo sapiens) [APTEDB, EDB-FN-specific aptamer-like peptide (aptide)] |  | < 100
